From PMC8154419, “Druggable Hot Spots in the Schistosomiasis Cathepsin B1 Target Identified by Functional and Binding Mode Analysis of Potent Vinyl Sulfone Inhibitors” (ACS Infectious Diseases, 2020)

Each compound was assayed against SmCB1 (Schistosoma mansoni, UniProt Q8MNY2, T185A/T300A) (assay: SmCB1 kinetic inhibition assay (IC50) with fluorogenic substrate Cbz–Phe–Arg–AMC). Details: recombinant SmCB1, Cbz–Phe–Arg–AMC, pH 5.5; mean ± SE, triplicate; n.i.: no significant inhibition at 100 μM.
Sequence of SmCB1 (Q8MNY2 87-340 T185A/T300A): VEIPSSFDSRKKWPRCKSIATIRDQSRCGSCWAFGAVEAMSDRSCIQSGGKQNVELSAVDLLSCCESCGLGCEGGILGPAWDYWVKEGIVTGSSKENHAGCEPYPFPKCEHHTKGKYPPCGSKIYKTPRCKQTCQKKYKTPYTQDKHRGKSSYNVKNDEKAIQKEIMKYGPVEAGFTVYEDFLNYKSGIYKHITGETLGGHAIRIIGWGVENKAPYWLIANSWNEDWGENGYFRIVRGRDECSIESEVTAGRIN
Format: biochemical
Text: Thirty-four peptidomimetic vinyl sulfone analogs (including vinyl sulfonamides and vinyl sulfonate esters) were explored as potential inhibitors of SmCB1 to infer the structural requirements of the inhibitor-binding subsites in the enzyme active site cleft. The compound scaffold is defined by positions P3 through P1′, and the substitutions were selected to provide a high diversity at P2 and P1′ (Table 1). These two positions were recently reported to display large differences in the subsite interaction energy in response to their structural modifications.[10] The compounds were screened in vitro against recombinant SmCB1, and their IC50 values were determined using a kinetic inhibition assay with the fluorogenic substrate Cbz–Phe–Arg–AMC.
Inhibition measurements were performed in triplicates in 96-well microplates (100 μL assay volume) at 37 °C. […] The kinetics of product release was continuously monitored in an Infinite M1000 microplate reader (Tecan) at excitation and emission wavelengths of 360 and 465 nm, respectively. The IC50 values were determined by nonlinear regression using GraFit software. To determine the inhibition constant k2nd, the enzyme (40 pM SmCB1 or 60 pM HuCB) was added to a mixture of the fluorogenic substrate Cbz–Phe–Arg–AMC (20 μM for SmCB1 and 33 μM for HuCB) and an inhibitor (0–1 μM) in the assay buffer under assay conditions as above. The hydrolysis of substrate was monitored for 30 min in a microplate reader as described above. An observed rate constant, kobs, was calculated at each inhibitor concentration by fitting the progress curve to the equation P = vi/kobs(1 – e^–kobst), where P is the product formation, vi is the initial velocity, and t is the reaction time. For both enzymes, kobs varied linearly with the inhibitor concentration showing that the dependence of kobs on the inhibitor concentration is nonsaturating. […] The second order rate constant, k2nd, was determined by fitting to the linear equation kobs = (k2nd[I])/(1 + [S]/KM), where [S] is the substrate concentration, [I] is the inhibitor concentration, and KM is the Michaelis–Menten constant. KM values determined for SmCB1 and HuCB were 25 and 38 μM, respectively.

Compound | IC50 [nM] | Inhibition IC50
O=C(N[C@H](/C=C/S(=O)(=O)c1ccccc1)CCc1ccccc1)[C@H](CCS(=O)(=O)c1ccccc1)NC(=O)N1CCOCC1 [CRA-009] | 186 ± 19 | –
C[C@@H](/C=C/S(=O)(=O)NCc1ccc(Cl)cc1)NC(=O)[C@H](Cc1ccccc1)NC(=O)OCc1ccccc1 [WRR-201] | 541 ± 76 | –
CCCC[C@@H](/C=C/S(=O)(=O)c1ccccc1)NC(=O)[C@H](Cc1ccccc1)NC(=O)N1CCC(N2CCOCC2)CC1 [CRA-553] | 13.2 ± 1.3 | –
O=C(N[C@@H](Cc1ccccc1)C(=O)N[C@H](/C=C/S(=O)(=O)c1ccccn1)CCc1ccccc1)OCc1ccccc1 [WRR-255] | 1.5 ± 0.13 | –
CCC[C@@H](/C=C/S(=O)(=O)c1ccccc1)NC(=O)[C@H](Cc1ccccc1)NC(=O)N1CCC(N2CCOCC2)CC1 [CRA-446] | 44.6 ± 6.1 | –
O=C(N[C@H](/C=C/S(=O)(=O)c1ccccc1)CCc1ccccc1)[C@H](CS(=O)(=O)Cc1ccccc1)NC(=O)N1CCOCC1 [CRA-891] | 212 ± 10 | –
CCC[C@@H](/C=C/S(=O)(=O)c1ccccc1)NC(=O)[C@H](Cc1c(F)cccc1F)NC(=O)c1ccc(-c2ccccc2Cl)cc1 [CRA-845] | – | n.i.
O=C(N[C@@H](Cc1cc(I)c(O)c(I)c1)C(=O)N[C@H](/C=C/S(=O)(=O)c1ccccc1)CCc1ccccc1)c1ccc(N2CCOCC2)cc1 [CRA-422] | 665 ± 98 | –
O=C(N[C@@H](Cc1ccccc1)C(=O)N[C@H](/C=C/S(=O)(=O)CCc1ccccc1)CCc1ccccc1)OCc1ccccc1 [WRR-257] | 9520 ± 607 | –
CCCC[C@@H](/C=C/S(=O)(=O)c1ccccc1)NC(=O)[C@H](Cc1cc(I)c(O)c(I)c1)NC(=O)OC(C)(C)C [CRA-372] | 6250 ± 322 | –
C[C@@H](/C=C/S(=O)(=O)NCc1ccc(F)cc1F)NC(=O)[C@H](Cc1ccccc1)NC(=O)OCc1ccccc1 [WRR-197] | 1130 ± 120 | –
O=C(N[C@H](/C=C/S(=O)(=O)c1ccccc1)CCc1ccccc1)[C@H](CS(=O)(=O)Cc1ccccc1OC(F)F)NC(=O)N1CCOCC1 [CRA-012] | 477 ± 43 | –
CCC[C@@H](/C=C/S(=O)(=O)c1ccccc1)NC(=O)[C@H](Cc1ccccc1Cl)NC1=NS(=O)(=O)c2ccccc21 [CRA-383] | 10000 to 100000 | –
CNS(=O)(=O)/C=C/[C@H](C)NC(=O)[C@H](Cc1ccccc1)NC(=O)OCc1ccccc1 [WRR-206] | 93.7 ± 7.3 | –
C[C@@H](/C=C/S(=O)(=O)NCc1ccc(F)cc1)NC(=O)[C@H](Cc1ccccc1)NC(=O)OCc1ccccc1 [WRR-196] | 1250 ± 173 | –
CCOC(=O)C1CCN(C(=O)N[C@@H](CC2CCCCC2)C(=O)N[C@H](/C=C/S(=O)(=O)c2ccccc2)CCc2ccccc2)CC1 [WRR-436] | 72.1 ± 9.1 | –
CCC[C@@H](/C=C/S(=O)(=O)c1ccccc1)NC(=O)[C@H](CSCc1ccccn1)NC1=NS(=O)(=O)c2ccccc21 [CRA-393] | 3450 ± 346 | –
C[C@@H](/C=C/S(=O)(=O)NCCc1ccccc1)NC(=O)[C@H](Cc1ccccc1)NC(=O)OCc1ccccc1 [WRR-186] | 629 ± 57 | –
CCCC[C@@H](/C=C/S(=O)(=O)c1ccccc1)NC(=O)[C@H](Cc1ccccc1)NC(=O)N1CCC(N2CCCCC2)CC1 [CRA-892] | 7.5 ± 0.58 | –
CCCC[C@@H](/C=C/S(=O)(=O)c1ccccc1)NC(=O)[C@@H](N)Cc1cc(I)c(O)c(I)c1 [CRA-373] | 425 ± 46 | –
O=C(N[C@@H](Cc1ccccc1)C(=O)N[C@H](/C=C/S(=O)(=O)Oc1ccc([N+](=O)[O-])cc1)CCc1ccccc1)OCc1ccccc1 [WRR-258] | 50.1 ± 4.9 | –
CCC[C@@H](/C=C/S(=O)(=O)c1ccccc1)NC(=O)C1(NC(=O)N2CCN(C)CC2)CCCCC1 [CRA-555] | – | n.i.
CN1CCN(C(=O)N[C@@H](Cc2ccccc2)C(=O)N[C@H](/C=C/S(=O)(=O)Oc2ccc(F)cc2)CCc2ccccc2)CC1 [WRR-353] | 119 ± 16 | –
CCC[C@@H](/C=C/S(=O)(=O)c1ccccc1)NC(=O)[C@H](Cc1ccc(F)cc1)NC(=O)N1CCC(N2CCOCC2)CC1 [CRA-552] | 202 ± 25 | –
CCC[C@@H](/C=C/S(=O)(=O)c1ccccc1)NC(=O)[C@H](CC1CCCCC1)NC=NS(=O)(=O)c1ccccc1 [CRA-359] | 9990 ± 280 | –
